Source: US20220168313A1, “HETEROCYCLIC COMPOUNDS AND USES THEREOF” (Nuvation Bio Inc., priority 2019, published 2022)

Legend:
[1] = molecular target: T1, WEE1 kinase enzyme (Homo sapiens, UniProt P30291); assay: WEE1 IC50 determination, LanthaScreen Terbium Labeled TR-FRET kinase assay; format: biochemical; details: WEE1 Enzyme 1 nM, ATP 10 μM, fluorescent-PolyGT substrate 200 nM, 1 h
T1 construct: purchased Invitrogen, Life Technologies PR7373A
Experimental: IC50 values of the compounds against WEE1 kinase enzyme were determined by LanthaScreen™ Terbium Labeled TR-FRET assay. Kinase assays were performed in 1× kinase buffer (#PV6135, Invitrogen, Life Technologies, Grand Island, N.Y.) where total reaction volume was 10 μL in low-volume 384-well plates (#4511, Corning). Serially diluted compounds (3-fold) were incubated with WEE1 Enzyme (1 nM) (#PR7373A, Invitrogen, Life Technologies, Grand Island, N.Y.) for 10 min; a mixture of ATP (10 μM) (#A1852, Sigma, St. Louis, Mo.) and fluorescent-PolyGT substrate (200 nM) (#PV3610, Invitrogen, Life Technologies, Grand Island, N.Y.) was added and incubated in dark at room temperature for 1 h. After 1 h, 10 μL stop solution containing terbium labeled antibody (4 nM) (#PV3529, Invitrogen, Life Technologies, Grand Island, N.Y.) and EDTA (#E5134, Sigma, St. Louis, Mo.) (20 mM) in TR-FRET dilution buffer (#PV3574, Invitrogen, Life Technologies, Grand Island, N.Y.) were added. Readings were taken in a Synergy Neo plate reader (BioTek, Winooski, Vt.) at single excitation of 340 nm and dual emission at 495 nm and 520 nm respectively.
The % activity of test samples was calculated as (Sample−Min)*100/(Max−Min). [Max: DMSO control, complete reaction with enzyme & DMSO and Min: No enzyme & DMSO]. Percent inhibition (100-% activity) was fitted to the “four-parameter logistic model” in XLfit for determination of IC50 values.

[2] = tested on: A427 cells; assay: Cytotoxicity assay in A427 cell line (resazurin, 72 hr); format: cell-based; details: Homo sapiens, A-427; A427 lung epithelial cell line, 72 hr incubation, inhibition of proliferation
Experimental: A427 (HTB-53; ATCC), a lung epithelial cell line, was seeded in medium (MEM, 41090101; Gibco) at a cell count of 1500 cells per 100 μL per well in a 96 well edge plate (167425; ThermoFisher). Cells were allowed to grow at 37° C. for 24 hr in 5% CO2 environment (culture conditions) in a Nuaire incubator (humidified). Serially diluted test compounds (100 μL) within the desired testing concentration ranges were added to the culture plate and the cells further incubated in culture conditions for 72 hr. The experiment was terminated at the designated incubation time by replacing the medium with 100 μL of 1 mM of resazurin (R7017; Sigma) prepared in culture medium, and the plates were further incubated in culture conditions for 4-6 hr. Fluorescence was recorded using a multimodal plate reader (Biotek Synergy Neo) at an excitation wavelength of 535 nm and emission wavelength of 590 nm to obtain relative fluorescence units. Data were analysed as follows: the background fluorescence (blank containing only medium) value was subtracted from each reading and normalized with the vehicle control (DMSO treated cells) to obtain percent survival/proliferation. […] Potency of compounds in other cell lines (such as A549, As-Pc-1, Panc-10.05, MDA-MB-231, A172, U-87MG) may be determined in an analogous manner.

T1 sequence (P30291 whole entry): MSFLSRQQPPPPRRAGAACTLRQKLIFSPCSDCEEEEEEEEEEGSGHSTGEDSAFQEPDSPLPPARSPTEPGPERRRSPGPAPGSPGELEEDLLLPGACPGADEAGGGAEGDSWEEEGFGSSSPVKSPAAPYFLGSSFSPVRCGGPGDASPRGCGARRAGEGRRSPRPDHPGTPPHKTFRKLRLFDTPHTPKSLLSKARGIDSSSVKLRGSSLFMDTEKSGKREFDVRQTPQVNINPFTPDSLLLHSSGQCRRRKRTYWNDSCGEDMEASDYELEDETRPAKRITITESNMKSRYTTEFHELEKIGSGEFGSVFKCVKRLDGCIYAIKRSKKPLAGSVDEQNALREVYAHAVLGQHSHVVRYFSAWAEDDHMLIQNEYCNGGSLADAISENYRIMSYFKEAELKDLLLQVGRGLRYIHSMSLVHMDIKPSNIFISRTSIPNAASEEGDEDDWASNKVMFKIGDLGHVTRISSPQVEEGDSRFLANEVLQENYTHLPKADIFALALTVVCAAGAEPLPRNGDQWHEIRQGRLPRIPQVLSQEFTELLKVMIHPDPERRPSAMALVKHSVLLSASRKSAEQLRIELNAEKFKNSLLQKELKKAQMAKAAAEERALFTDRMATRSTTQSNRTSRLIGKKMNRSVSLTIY

For `CN(C)CC(=O)N1CCc2ccc(Nc3ncc4c(n3)OCN(c3c(Cl)cccc3Cl)C4=O)cc2C1` [Compound No. 1.44, 3-(2,6-dichlorophenyl)-7-((2-(dimethylglycyl)-1,2,3,4-tetrahydroisoquinolin-7-yl)amino)-2,3-dihydro-4H-pyrimido[5,4-e][1,3]oxazin-4-one], which IC50 [1] is on record?
The IC50 was 225 nM.

With `CC(C)N1CCc2cc(Nc3ncc4c(n3)OCN(c3c(Cl)cccc3Cl)C4=O)ccc2C1` [Compound No. 1.40, 3-(2,6-dichlorophenyl)-7-((2-isopropyl-1,2,3,4-tetrahydroisoquinolin-6-yl)amino)-2,3-dihydro-4H-pyrimido[5,4-e][1,3]oxazin-4-one] as the compound, how does the IC50 [1] read?
Its IC50 is 206 nM.

Which IC50 [1] does the source give for `CN(C)CC(=O)N1CCc2cc(Nc3ncc4c(n3)OCN(c3c(Cl)cccc3Cl)C4=O)ccc2C1(C)C` [1.48, 3-(2,6-dichlorophenyl)-7-((2-(dimethylglycyl)-1,1-dimethyl-1,2,3,4-tetrahydroisoquinolin-6-yl)amino)-2,3-dihydro-4H-pyrimido[5,4-e][1,3]oxazin-4-one] here?
The IC50 was 125 nM.

Which results are given for `CC(C)N1CCc2ccc(Nc3ncc4c(n3)OCN(c3c(Cl)cccc3Cl)C4=O)cc2C1` [Compound No. 1.43, 3-(2,6-dichlorophenyl)-7-((2-isopropyl-1,2,3,4-tetrahydroisoquinolin-7-yl)amino)-2,3-dihydro-4H-pyrimido[5,4-e][1,3]oxazin-4-one]?
IC50 [2]: 5500 nM; IC50 [1]: 21 nM

`CN(C)CC(=O)N1CCc2cc(Nc3ncc4c(n3)OCN(c3c(Cl)cccc3Cl)C4=O)ccc2C1` [1.37, 3-(2,6-dichlorophenyl)-7-(2-(2-(dimethylamino)acetyl)-1,2,3,4-tetrahydroisoquinolin-6-ylamino)-2H-pyrimido[5,4-e][1,3]oxazin-4 (3H)-one] was tested. Which IC50 [1] did it give?
Its IC50 is 145 nM.
